The source of these data is US20250353891A1 (MEDIMMUNE LIMITED, priority 2022, published 2025).

Assay [1] concerns the target human glucagon receptor (hGCGR) (Homo sapiens, UniProt P47871). The assay can be described thus: cAMP production (HTRF) in CHO cells expressing hGCGR. Details: expressed in transfected cells. Type of assay: cell-based. Conditions: Table 6, peptides modified at position 17; cAMP in CHO hGCGR cells; geometric mean; read-out: hGluc-R EC50. The method, boiled down: (§1)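 Potency values represent EC50 from 4-parameter logistic curves of HTRF % Delta F signal. Receptor-expressing CHO cells (hGCGR 2×10^5 cells/mL, hGLP-1R 1×10^5 cells/mL) were exposed for 30 min at room temperature before two-step cAMP detection.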

Assay [2] concerns the target human GLP-1 receptor (hGLP-1R) (Homo sapiens, UniProt P43220). The assay can be described thus: cAMP production (HTRF) in CHO cells expressing hGLP-1R. Type of assay: cell-based. The arrangement: expressed in transfected cells. As to conditions: for pEC50: Table 6, peptides modified at position 17, cAMP in CHO hGLP-1R cells, geometric mean, read-out: hGLP-1R EC50; for % Relative Potency Ratio: Table 6, % GLP-1R activity relative to GLP-1 / % GlucR activity relative to glucagon. The method, boiled down:
as §1
Background: Cyclic AMP is a second messenger, typically raised through Gs and lowered through Gi signalling.

pEC50: −log10 of the molar value. Starred links: 1 amine or outer side, 2 acyl side, 3 side chain; linkers in the order of their positions; H or OH if unused. Non-standard residues stand in square brackets, D forms with d. Residues, ends and D or L forms follow the SMILES beside them. Groups on a side chain read outwards from the residue. *: point of attachment. PEG12 = NCCOCCOCCOCCOCCOCCOCCOCCOCCOCCOCCOCCOCCC(=O)O; PEG8 = NCCOCCOCCOCCOCCOCCOCCOCCOCCC(=O)O; Dip = N[C@H](C(=O)O)C(c1ccccc1)c1ccccc1; γGlu = O=C(O)[C@H](CCC(=O)[*:2])N[*:1]; Stearoyl = CCCCCCCCCCCCCCCCCC(=O)*; αMeF = C[C@](N)(Cc1ccccc1)C(=O)O; PEG4 = NCCOCCOCCOCCOCCC(=O)O; PEG2 = NCCOCCOCCC(=O)O; Aib = CC(C)(N)C(=O)O

human GLP-1 receptor (hGLP-1R), sequence (P43220 24-463): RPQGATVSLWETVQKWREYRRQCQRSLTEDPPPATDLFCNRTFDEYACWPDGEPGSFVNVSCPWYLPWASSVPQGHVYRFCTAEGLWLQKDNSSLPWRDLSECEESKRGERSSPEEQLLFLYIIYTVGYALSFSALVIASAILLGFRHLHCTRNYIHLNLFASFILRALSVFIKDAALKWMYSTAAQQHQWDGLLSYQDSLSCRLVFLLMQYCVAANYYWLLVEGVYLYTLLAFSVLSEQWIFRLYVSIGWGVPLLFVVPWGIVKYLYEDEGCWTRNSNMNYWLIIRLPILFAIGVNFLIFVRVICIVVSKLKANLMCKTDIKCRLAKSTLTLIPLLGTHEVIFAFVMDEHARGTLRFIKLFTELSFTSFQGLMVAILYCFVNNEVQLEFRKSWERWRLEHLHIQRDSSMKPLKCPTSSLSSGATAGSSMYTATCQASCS
human glucagon receptor (hGCGR), sequence (P47871 26-477): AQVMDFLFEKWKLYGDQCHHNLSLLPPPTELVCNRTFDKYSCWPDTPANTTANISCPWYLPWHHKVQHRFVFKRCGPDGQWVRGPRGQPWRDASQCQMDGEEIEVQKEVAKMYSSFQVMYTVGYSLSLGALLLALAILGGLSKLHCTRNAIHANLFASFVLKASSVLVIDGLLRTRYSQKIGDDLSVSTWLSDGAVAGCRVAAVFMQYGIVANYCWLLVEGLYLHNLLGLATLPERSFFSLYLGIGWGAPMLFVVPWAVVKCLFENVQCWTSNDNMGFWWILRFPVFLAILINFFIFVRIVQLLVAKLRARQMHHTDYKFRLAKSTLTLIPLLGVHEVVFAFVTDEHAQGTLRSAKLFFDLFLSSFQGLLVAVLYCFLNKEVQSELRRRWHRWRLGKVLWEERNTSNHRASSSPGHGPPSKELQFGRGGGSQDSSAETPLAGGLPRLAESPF

Broadly, the pEC50 is the EC50 on a negative log10 scale, so that one unit is a factor of ten. As for `CCCCCCCCCCCCCCCCCC(=O)N[C@@H](CCC(=O)N[C@@H](CCC(=O)NCCOCCOCCC(=O)NCCOCCOCCC(=O)NCCCC[C@H](NC(=O)[C@H](CO)NC(=O)[C@H](CC(=O)O)NC(=O)[C@H](CC(C)C)NC(=O)[C@@H](NC(=O)[C@H](CCCCN)NC(=O)[C@H](CO)NC(=O)[C@@H](NC(=O)[C@H](CC(=O)O)NC(=O)[C@H](CO)NC(=O)[C@@H](NC(=O)[C@](C)(Cc1ccccc1)NC(=O)[C@H](CO)NC(=O)CNC(=O)[C@H](CCC(N)=O)NC(=O)[C@H](CO)NC(=O)[C@@H](N)Cc1c[nH]cn1)[C@@H](C)O)C(C)C)C(c1ccccc1)c1ccccc1)C(=O)N[C@@H](C)C(=O)N[C@@H](C)C(=O)N[C@@H](CCC(N)=O)C(=O)N[C@@H](CC(=O)O)C(=O)N[C@@](C)(Cc1ccccc1)C(=O)N[C@H](C(=O)N[C@@H](CCC(N)=O)C(=O)N[C@H](C(=O)N[C@@H](CC(C)C)C(=O)N[C@@H](CCC(=O)O)C(=O)N[C@@H](C)C(N)=O)C(c1ccccc1)c1ccccc1)C(C)C)C(=O)O)C(=O)O` [Peptide 55] (H-HSQGS[αMeF]TSDVSK[Dip]LDSK([PEG2-PEG2-γGlu-γGlu-Stearoyl])AAQD[αMeF]VQ[Dip]LEA-NH2; N-terminus assumed), the pEC50 in assay [1] was 10.72. Moreover, in assay [2], the negative logarithm of the EC50 (pEC50) was 10.73 and the “% Relative Potency Ratio” value is 2.0.

With `CCCCCCCCCCCCCCCCCC(=O)N[C@@H](CCC(=O)N[C@@H](CCC(=O)NCCOCCOCCOCCOCCC(=O)NCCCC[C@H](NC(=O)[C@H](CO)NC(=O)[C@H](CC(=O)O)NC(=O)[C@H](CC(C)C)NC(=O)[C@@H](NC(=O)[C@H](CCCCN)NC(=O)[C@H](CO)NC(=O)[C@@H](NC(=O)[C@H](CC(=O)O)NC(=O)[C@H](CO)NC(=O)[C@@H](NC(=O)[C@](C)(Cc1ccccc1)NC(=O)[C@H](CO)NC(=O)CNC(=O)[C@H](CCC(N)=O)NC(=O)[C@H](CO)NC(=O)[C@@H](N)Cc1c[nH]cn1)[C@@H](C)O)C(C)C)C(c1ccccc1)c1ccccc1)C(=O)N[C@@H](C)C(=O)N[C@@H](C)C(=O)N[C@@H](CCC(N)=O)C(=O)N[C@@H](CC(=O)O)C(=O)N[C@@](C)(Cc1ccccc1)C(=O)N[C@H](C(=O)N[C@@H](CCC(=O)O)C(=O)NC(C)(C)C(=O)N[C@H](C(=O)N[C@H](C(=O)N[C@@H](CC(N)=O)C(=O)N[C@H](C(N)=O)[C@@H](C)O)[C@@H](C)CC)[C@@H](C)CC)C(C)C)C(=O)O)C(=O)O` [Peptide 56] (H-HSQGS[αMeF]TSDVSK[Dip]LDSK([PEG4-γGlu-γGlu-Stearoyl])AAQD[αMeF]VE[Aib]IINT-NH2; N-terminus assumed), the pEC50 was 10.96 in assay [1] and 11.31 in assay [2]. Further, the “% Relative Potency Ratio” value in assay [2] is reported as 4.4.

Regarding `CCCCCCCCCCCCCCCCCC(=O)N[C@@H](CCC(=O)N[C@@H](CCC(=O)NCCOCCOCCOCCOCCOCCOCCOCCOCCC(=O)NCCCC[C@H](NC(=O)[C@H](CO)NC(=O)[C@H](CC(=O)O)NC(=O)[C@H](CC(C)C)NC(=O)[C@@H](NC(=O)[C@H](CCCCN)NC(=O)[C@H](CO)NC(=O)[C@@H](NC(=O)[C@H](CC(=O)O)NC(=O)[C@H](CO)NC(=O)[C@@H](NC(=O)[C@](C)(Cc1ccccc1)NC(=O)[C@H](CO)NC(=O)CNC(=O)[C@H](CCC(N)=O)NC(=O)[C@H](CO)NC(=O)[C@@H](N)Cc1c[nH]cn1)[C@@H](C)O)C(C)C)C(c1ccccc1)c1ccccc1)C(=O)N[C@@H](C)C(=O)N[C@@H](C)C(=O)N[C@@H](CCC(N)=O)C(=O)N[C@@H](CC(=O)O)C(=O)N[C@@](C)(Cc1ccccc1)C(=O)N[C@H](C(=O)N[C@@H](CCC(=O)O)C(=O)NC(C)(C)C(=O)N[C@H](C(=O)N[C@H](C(=O)N[C@@H](CC(N)=O)C(=O)N[C@H](C(N)=O)[C@@H](C)O)[C@@H](C)CC)[C@@H](C)CC)C(C)C)C(=O)O)C(=O)O` [Peptide 57] (H-HSQGS[αMeF]TSDVSK[Dip]LDSK([PEG8-γGlu-γGlu-Stearoyl])AAQD[αMeF]VE[Aib]IINT-NH2; N-terminus assumed), in assay [1], the pEC50 is 10.77. In assay [2], the pEC50 is 11.04 and the “% Relative Potency Ratio” value was determined as 3.7.

With `CCCCCCCCCCCCCCCCCC(=O)N[C@@H](CCC(=O)N[C@@H](CCC(=O)NCCOCCOCCOCCOCCOCCOCCOCCOCCOCCOCCOCCOCCC(=O)NCCCC[C@H](NC(=O)[C@H](CO)NC(=O)[C@H](CC(=O)O)NC(=O)[C@H](CC(C)C)NC(=O)[C@@H](NC(=O)[C@H](CCCCN)NC(=O)[C@H](CO)NC(=O)[C@@H](NC(=O)[C@H](CC(=O)O)NC(=O)[C@H](CO)NC(=O)[C@@H](NC(=O)[C@](C)(Cc1ccccc1)NC(=O)[C@H](CO)NC(=O)CNC(=O)[C@H](CCC(N)=O)NC(=O)[C@H](CO)NC(=O)[C@@H](N)Cc1c[nH]cn1)[C@@H](C)O)C(C)C)C(c1ccccc1)c1ccccc1)C(=O)N[C@@H](C)C(=O)N[C@@H](C)C(=O)N[C@@H](CCC(N)=O)C(=O)N[C@@H](CC(=O)O)C(=O)N[C@@](C)(Cc1ccccc1)C(=O)N[C@H](C(=O)N[C@@H](CCC(=O)O)C(=O)NC(C)(C)C(=O)N[C@H](C(=O)N[C@H](C(=O)N[C@@H](CC(N)=O)C(=O)N[C@H](C(N)=O)[C@@H](C)O)[C@@H](C)CC)[C@@H](C)CC)C(C)C)C(=O)O)C(=O)O` [Peptide 58] (H-HSQGS[αMeF]TSDVSK[Dip]LDSK([PEG12-γGlu-γGlu-Stearoyl])AAQD[αMeF]VE[Aib]IINT-NH2; N-terminus assumed), the pEC50 in assay [1] is 10.95. In assay [2], the pEC50 was 11.41 and the “% Relative Potency Ratio” value came to 5.7.

Turning to `CCCCCCCCCCCCCCCCCC(=O)NCCOCCOCCC(=O)NCCOCCOCCC(=O)N[C@@H](CCC(=O)N[C@@H](CCC(=O)NCCCC[C@H](NC(=O)[C@H](CO)NC(=O)[C@H](CC(=O)O)NC(=O)[C@H](CC(C)C)NC(=O)[C@@H](NC(=O)[C@H](CCCCN)NC(=O)[C@H](CO)NC(=O)[C@@H](NC(=O)[C@H](CC(=O)O)NC(=O)[C@H](CO)NC(=O)[C@@H](NC(=O)[C@](C)(Cc1ccccc1)NC(=O)[C@H](CO)NC(=O)CNC(=O)[C@H](CCC(N)=O)NC(=O)[C@H](CO)NC(=O)[C@@H](N)Cc1c[nH]cn1)[C@@H](C)O)C(C)C)C(c1ccccc1)c1ccccc1)C(=O)N[C@@H](C)C(=O)N[C@@H](C)C(=O)N[C@@H](CCC(N)=O)C(=O)N[C@@H](CC(=O)O)C(=O)N[C@@](C)(Cc1ccccc1)C(=O)N[C@H](C(=O)N[C@@H](CCC(=O)O)C(=O)NC(C)(C)C(=O)N[C@H](C(=O)N[C@H](C(=O)N[C@@H](CC(N)=O)C(=O)N[C@H](C(N)=O)[C@@H](C)O)[C@@H](C)CC)[C@@H](C)CC)C(C)C)C(=O)O)C(=O)O` [Peptide 59] (H-HSQGS[αMeF]TSDVSK[Dip]LDSK([γGlu-γGlu-PEG2-PEG2-Stearoyl])AAQD[αMeF]VE[Aib]IINT-NH2; N-terminus assumed), in assay [1], the negative logarithm of the EC50 (pEC50) is 10.55. Moreover, in assay [2], the pEC50 is 11.21 and the “% Relative Potency Ratio” value is 9.1.

On to `CCCCCCCCCCCCCCCCCC(=O)NCCOCCOCCC(=O)N[C@@H](CCC(=O)NCCOCCOCCC(=O)N[C@@H](CCC(=O)NCCCC[C@H](NC(=O)[C@H](CO)NC(=O)[C@H](CC(=O)O)NC(=O)[C@H](CC(C)C)NC(=O)[C@@H](NC(=O)[C@H](CCCCN)NC(=O)[C@H](CO)NC(=O)[C@@H](NC(=O)[C@H](CC(=O)O)NC(=O)[C@H](CO)NC(=O)[C@@H](NC(=O)[C@](C)(Cc1ccccc1)NC(=O)[C@H](CO)NC(=O)CNC(=O)[C@H](CCC(N)=O)NC(=O)[C@H](CO)NC(=O)[C@@H](N)Cc1c[nH]cn1)[C@@H](C)O)C(C)C)C(c1ccccc1)c1ccccc1)C(=O)N[C@@H](C)C(=O)N[C@@H](C)C(=O)N[C@@H](CCC(N)=O)C(=O)N[C@@H](CC(=O)O)C(=O)N[C@@](C)(Cc1ccccc1)C(=O)N[C@H](C(=O)N[C@@H](CCC(=O)O)C(=O)NC(C)(C)C(=O)N[C@H](C(=O)N[C@H](C(=O)N[C@@H](CC(N)=O)C(=O)N[C@H](C(N)=O)[C@@H](C)O)[C@@H](C)CC)[C@@H](C)CC)C(C)C)C(=O)O)C(=O)O` [Peptide 60] (H-HSQGS[αMeF]TSDVSK[Dip]LDSK([γGlu-PEG2-γGlu-PEG2-Stearoyl])AAQD[αMeF]VE[Aib]IINT-NH2; N-terminus assumed), for which the pEC50 in assay [1] is 10.68; in assay [2], 11.29. In addition, the “% Relative Potency Ratio” value in assay [2] stood at 8.1.

On to `CCCCCCCCCCCCCCCCCC(=O)N[C@@H](CCC(=O)NCCOCCOCCC(=O)N[C@@H](CCC(=O)NCCOCCOCCC(=O)NCCCC[C@H](NC(=O)[C@H](CO)NC(=O)[C@H](CC(=O)O)NC(=O)[C@H](CC(C)C)NC(=O)[C@@H](NC(=O)[C@H](CCCCN)NC(=O)[C@H](CO)NC(=O)[C@@H](NC(=O)[C@H](CC(=O)O)NC(=O)[C@H](CO)NC(=O)[C@@H](NC(=O)[C@](C)(Cc1ccccc1)NC(=O)[C@H](CO)NC(=O)CNC(=O)[C@H](CCC(N)=O)NC(=O)[C@H](CO)NC(=O)[C@@H](N)Cc1c[nH]cn1)[C@@H](C)O)C(C)C)C(c1ccccc1)c1ccccc1)C(=O)N[C@@H](C)C(=O)N[C@@H](C)C(=O)N[C@@H](CCC(N)=O)C(=O)N[C@@H](CC(=O)O)C(=O)N[C@@](C)(Cc1ccccc1)C(=O)N[C@H](C(=O)N[C@@H](CCC(=O)O)C(=O)NC(C)(C)C(=O)N[C@H](C(=O)N[C@H](C(=O)N[C@@H](CC(N)=O)C(=O)N[C@H](C(N)=O)[C@@H](C)O)[C@@H](C)CC)[C@@H](C)CC)C(C)C)C(=O)O)C(=O)O` [Peptide 61] (H-HSQGS[αMeF]TSDVSK[Dip]LDSK([PEG2-γGlu-PEG2-γGlu-Stearoyl])AAQD[αMeF]VE[Aib]IINT-NH2; N-terminus assumed), for which the pEC50 is 11.02 in assay [1] and 11.38 in assay [2]. In addition, the “% Relative Potency Ratio” value in assay [2] was 4.6.
